Data published in patent publication US7612064B2, “Sulfopyrroles” (Takeda Pharmaceutical Company Limited, priority 2003, dated 2009).

What was measured:
Jily = assay: MTS proliferation assay; type: cell-based; conditions: 72 h
Outline: (§1)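 Compounds at final 10/3/1/0.3 μM (added in complete medium, ≤5% DMSO); 72 h, culture conditions; + MTS, 3 h; A492.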

MRC5 = assay: MTS proliferation assay; type: cell-based; conditions: MRC5, 72 h
Outline: as §1

Jurkat [1] = assay: MTS proliferation assay; type: cell-based, human; conditions: 72 h
Outline: as §1

HeLa [2] = assay: MTS proliferation assay; type: cell-based, human; conditions: 72 h
Outline: as §1

[3] = Hoechst 33342 nuclear staining; type: cell-based; conditions: for Hoechst 33342 nuclear staining score, H460: H460 cells; for Hoechst 33342 nuclear staining score, HeLa: HeLa cells; for Hoechst 33342 nuclear staining score, Jily: Jily cells; for Hoechst 33342 nuclear staining score, Jurkat: Jurkat cells; for Hoechst 33342 nuclear staining score, MRC5: MRC5 cells;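 as to all read-outs here: apoptotic nuclei scored 0 none 1 weak under 50% of cells 2 strong over 50% of cells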
Outline: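 Cells were plated in 96 well tissue culture plates in 80 μl complete medium, with 3-5*10^3 cells per well for adherent lines and 8-10*10^3 for suspension lines. Adherent cells spread for 24 h before treatment, while suspension cells were treated right after seeding. Compounds were added in 20 μl complete medium containing max 5% DMSO.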

Jurkat [4] = assay: PI staining for cell cycle distribution; type: cell-based, human; parameters: key: 0: no effect; 1: weak effect; 2: strong effect; conditions: Jurkat 3μM, 48 h
Experimental: (§2) 1-2*10^5 cells are seeded into 24 well tissue culture plates and incubated for 24 h prior to compound addition. […] Adherent cells are harvested by trypsinization. The cell suspensions are fixed by adding 2 parts ice cold ethanol 100% while vortexing. Then the samples are stored for>2 h at −20° C. Subsequently the cells are washed with PBS once and resuspended in 250 μl PBS containing 50 μg/ml PI (Calbiochem # 537059), then the samples are incubated at 37° C. for 30 min and subsequently analyzed on a FACSCalibur™ monitoring linear PI fluorescence activity on FL2. The readout allows the detection of a possible direct or indirect influence of the tested compounds on the cell cycle. The following events can occur: a) Generation of a subG1 peak indicative for DNA fragmentation, b) increase of the cell population arrested in G2M phase. Both events are scored by 1 for weak and 2 for strong occurrence. 0 indicates no occurrence at all.

HeLa [5] = assay: PI staining for cell cycle distribution; type: cell-based, human; parameters: key: 0: no effect; 1: weak effect; 2: strong effect; conditions: HeLa 10μM, 48 h
Experimental: as §2

[6] = conc 0.1 (final concentrations in μM), 24 h or 48 h incubation
[7] = conc 0.3 (final concentrations in μM), 24 h or 48 h incubation
[8] = conc 1 (final concentrations in μM), 24 h or 48 h incubation
[9] = conc 3 (final concentrations in μM), 24 h or 48 h incubation

Cc1ccc(S(=O)(=O)n2cc(-c3ccc(S(N)(=O)=O)cc3)cc2-c2ccc3c(c2)OCO3)cc1 [Example 51]
IC50 (Jily): < 1000 nM
IC50 (MRC5): < 1000 nM
IC50 (Jurkat [1]): < 1000 nM
IC50 (HeLa [2]): < 1000 nM
Hoechst 33342 nuclear staining score, H460 [3, 6]: 0
Hoechst 33342 nuclear staining score, H460 [3, 7]: 0
Hoechst 33342 nuclear staining score, H460 [3, 8]: 2 (strong activity comprising more than 50% of the cells)
Hoechst 33342 nuclear staining score, H460 [3, 9]: 2 (strong activity comprising more than 50% of the cells)
Hoechst 33342 nuclear staining score, HeLa [3, 6]: 0
Hoechst 33342 nuclear staining score, HeLa [3, 7]: 0
Hoechst 33342 nuclear staining score, HeLa [3, 8]: 2 (strong activity comprising more than 50% of the cells)
Hoechst 33342 nuclear staining score, HeLa [3, 9]: 2 (strong activity comprising more than 50% of the cells)
Hoechst 33342 nuclear staining score, Jily [3, 6]: 0
Hoechst 33342 nuclear staining score, Jily [3, 7]: 0
Hoechst 33342 nuclear staining score, Jily [3, 8]: 2 (strong activity comprising more than 50% of the cells)
Hoechst 33342 nuclear staining score, Jily [3, 9]: 2 (strong activity comprising more than 50% of the cells)
Hoechst 33342 nuclear staining score, Jurkat [3, 6]: 0
Hoechst 33342 nuclear staining score, Jurkat [3, 7]: 0
Hoechst 33342 nuclear staining score, Jurkat [3, 8]: 2 (strong activity comprising more than 50% of the cells)
Hoechst 33342 nuclear staining score, Jurkat [3, 9]: 2 (strong activity comprising more than 50% of the cells)
Hoechst 33342 nuclear staining score, MRC5 [3, 6]: 0
Hoechst 33342 nuclear staining score, MRC5 [3, 7]: 0
Hoechst 33342 nuclear staining score, MRC5 [3, 8]: 1 (weak activity comprising less than 50% of the cells)
Hoechst 33342 nuclear staining score, MRC5 [3, 9]: 1 (weak activity comprising less than 50% of the cells)
Hoechst 33342 nuclear staining score, PBLs [3, 6]: 0
Hoechst 33342 nuclear staining score, PBLs [3, 7]: 0
Hoechst 33342 nuclear staining score, PBLs [3, 8]: 0
Hoechst 33342 nuclear staining score, PBLs [3, 9]: 0
PI staining for cell cycle distribution, G2M (Jurkat [4]): 1
PI staining for cell cycle distribution, subG1 (Jurkat [4]): 0
PI staining for cell cycle distribution, G2M (HeLa [5]): 2
PI staining for cell cycle distribution, subG1 (HeLa [5]): 0

Cc1ccc(S(=O)(=O)n2cc(-c3cncc(C(N)=O)c3)cc2-c2cccs2)cc1 [Example 53]
IC50 (MRC5): > 1000 nM
IC50 (Jurkat [1]): < 1000 nM
IC50 (HeLa [2]): > 1000 nM
Hoechst 33342 nuclear staining score, H460 [3, 6]: 0
Hoechst 33342 nuclear staining score, H460 [3, 7]: 0
Hoechst 33342 nuclear staining score, H460 [3, 8]: 0
Hoechst 33342 nuclear staining score, H460 [3, 9]: 0
Hoechst 33342 nuclear staining score, HeLa [3, 6]: 0
Hoechst 33342 nuclear staining score, HeLa [3, 7]: 0
Hoechst 33342 nuclear staining score, HeLa [3, 8]: 0
Hoechst 33342 nuclear staining score, HeLa [3, 9]: 0
Hoechst 33342 nuclear staining score, Jily [3, 6]: 0
Hoechst 33342 nuclear staining score, Jily [3, 7]: 0
Hoechst 33342 nuclear staining score, Jily [3, 8]: 0
Hoechst 33342 nuclear staining score, Jily [3, 9]: 0
Hoechst 33342 nuclear staining score, Jurkat [3, 6]: 0
Hoechst 33342 nuclear staining score, Jurkat [3, 7]: 0
Hoechst 33342 nuclear staining score, Jurkat [3, 8]: 0
Hoechst 33342 nuclear staining score, Jurkat [3, 9]: 0
Hoechst 33342 nuclear staining score, MRC5 [3, 6]: 0
Hoechst 33342 nuclear staining score, MRC5 [3, 7]: 0
Hoechst 33342 nuclear staining score, MRC5 [3, 8]: 0
Hoechst 33342 nuclear staining score, MRC5 [3, 9]: 0
Hoechst 33342 nuclear staining score, PBLs [3, 6]: 0
Hoechst 33342 nuclear staining score, PBLs [3, 7]: 0
Hoechst 33342 nuclear staining score, PBLs [3, 8]: 0
Hoechst 33342 nuclear staining score, PBLs [3, 9]: 0
PI staining for cell cycle distribution, G2M (Jurkat [4]): 1
PI staining for cell cycle distribution, subG1 (Jurkat [4]): 0
PI staining for cell cycle distribution, G2M (HeLa [5]): 2
PI staining for cell cycle distribution, subG1 (HeLa [5]): 0

COc1cc(-c2cc(CNc3ccc(-n4ccnc4)cc3)cn2S(=O)(=O)c2ccc(C)cc2)cc(OC)c1OC [Example 55]
IC50 (Jily): > 1000 nM
IC50 (MRC5): < 1000 nM
IC50 (Jurkat [1]): < 1000 nM
IC50 (HeLa [2]): > 1000 nM
Hoechst 33342 nuclear staining score, H460 [3, 6]: 0
Hoechst 33342 nuclear staining score, H460 [3, 7]: 0
Hoechst 33342 nuclear staining score, H460 [3, 8]: 0
Hoechst 33342 nuclear staining score, H460 [3, 9]: 2 (strong activity comprising more than 50% of the cells)
Hoechst 33342 nuclear staining score, HeLa [3, 6]: 0
Hoechst 33342 nuclear staining score, HeLa [3, 7]: 0
Hoechst 33342 nuclear staining score, HeLa [3, 8]: 1 (weak activity comprising less than 50% of the cells)
Hoechst 33342 nuclear staining score, HeLa [3, 9]: 2 (strong activity comprising more than 50% of the cells)
Hoechst 33342 nuclear staining score, Jily [3, 6]: 0
Hoechst 33342 nuclear staining score, Jily [3, 7]: 0
Hoechst 33342 nuclear staining score, Jily [3, 8]: 2 (strong activity comprising more than 50% of the cells)
Hoechst 33342 nuclear staining score, Jily [3, 9]: 2 (strong activity comprising more than 50% of the cells)
Hoechst 33342 nuclear staining score, Jurkat [3, 6]: 0
Hoechst 33342 nuclear staining score, Jurkat [3, 7]: 0
Hoechst 33342 nuclear staining score, Jurkat [3, 8]: 2 (strong activity comprising more than 50% of the cells)
Hoechst 33342 nuclear staining score, Jurkat [3, 9]: 2 (strong activity comprising more than 50% of the cells)
Hoechst 33342 nuclear staining score, MRC5 [3, 6]: 0
Hoechst 33342 nuclear staining score, MRC5 [3, 7]: 0
Hoechst 33342 nuclear staining score, MRC5 [3, 8]: 0
Hoechst 33342 nuclear staining score, MRC5 [3, 9]: 1 (weak activity comprising less than 50% of the cells)
Hoechst 33342 nuclear staining score, PBLs [3, 6]: 0
Hoechst 33342 nuclear staining score, PBLs [3, 7]: 0
Hoechst 33342 nuclear staining score, PBLs [3, 8]: 0
Hoechst 33342 nuclear staining score, PBLs [3, 9]: 0
PI staining for cell cycle distribution, G2M (Jurkat [4]): 1
PI staining for cell cycle distribution, subG1 (Jurkat [4]): 0
PI staining for cell cycle distribution, G2M (HeLa [5]): 2
PI staining for cell cycle distribution, subG1 (HeLa [5]): 0

COc1ccc(S(=O)(=O)n2cc(-c3cncc(C(N)=O)c3)cc2-c2ccccc2OC)cc1 [Example 107]
IC50 (Jily): < 1000 nM
IC50 (MRC5): > 1000 nM
IC50 (Jurkat [1]): < 1000 nM
IC50 (HeLa [2]): > 1000 nM
Hoechst 33342 nuclear staining score, H460 ([3]; conc 0.1): 0
Hoechst 33342 nuclear staining score, H460 ([3]; conc 0.3): 0
Hoechst 33342 nuclear staining score, H460 ([3]; conc 1): 1 (weak activity comprising less than 50% of the cells)
Hoechst 33342 nuclear staining score, H460 ([3]; conc 3): 2 (strong activity comprising more than 50% of the cells)
Hoechst 33342 nuclear staining score, HeLa ([3]; conc 0.1): 0
Hoechst 33342 nuclear staining score, HeLa ([3]; conc 0.3): 0
Hoechst 33342 nuclear staining score, HeLa ([3]; conc 1): 0
Hoechst 33342 nuclear staining score, HeLa ([3]; conc 3): 2 (strong activity comprising more than 50% of the cells)
Hoechst 33342 nuclear staining score, Jily ([3]; conc 0.1): 0
Hoechst 33342 nuclear staining score, Jily ([3]; conc 0.3): 0
Hoechst 33342 nuclear staining score, Jily ([3]; conc 1): 2 (strong activity comprising more than 50% of the cells)
Hoechst 33342 nuclear staining score, Jily ([3]; conc 3): 2 (strong activity comprising more than 50% of the cells)
Hoechst 33342 nuclear staining score, Jurkat ([3]; conc 0.1): 0
Hoechst 33342 nuclear staining score, Jurkat ([3]; conc 0.3): 0
Hoechst 33342 nuclear staining score, Jurkat ([3]; conc 1): 2 (strong activity comprising more than 50% of the cells)
Hoechst 33342 nuclear staining score, Jurkat ([3]; conc 3): 2 (strong activity comprising more than 50% of the cells)
Hoechst 33342 nuclear staining score, MRC5 ([3]; conc 0.1): 0
Hoechst 33342 nuclear staining score, MRC5 ([3]; conc 0.3): 0
Hoechst 33342 nuclear staining score, MRC5 ([3]; conc 1): 0
Hoechst 33342 nuclear staining score, MRC5 ([3]; conc 3): 0
Hoechst 33342 nuclear staining score, PBLs ([3]; conc 0.1): 0
Hoechst 33342 nuclear staining score, PBLs ([3]; conc 0.3): 0
Hoechst 33342 nuclear staining score, PBLs ([3]; conc 1): 0
Hoechst 33342 nuclear staining score, PBLs ([3]; conc 3): 0

p-(1-[p-Toluenesulfonyl]-2-[3,4,5-trimethoxyphenyl]-4-pyrrolyl)-benzamide [Example 6]
IC50 (MRC5): < 1000 nM
IC50 (Jurkat [1]): < 200 nM
IC50 (HeLa [2]): < 1000 nM
PI staining for cell cycle distribution, G2M (Jurkat [4]): 1
PI staining for cell cycle distribution, subG1 (Jurkat [4]): 0
PI staining for cell cycle distribution, G2M (HeLa [5]): 2
PI staining for cell cycle distribution, subG1 (HeLa [5]): 0
